According to the supplement of paper PMC13380429:

What was measured:
Settings in all cases: 72 h
Caco-2 [1] = experiment: cell viability relative to DMSO; higher = less toxic
Calu-3 [2] = experiment: as above
HepG2 [3] = experiment: as above
U2OS [4] = experiment: as above
Vero E6 [5] = experiment: as above
Caco-2 [6] = experiment: relative viability EC50 (midpoint between 100% and the lowest measured viability); higher = less toxic
Calu-3 [7] = experiment: as above
HepG2 [8] = experiment: as above
U2OS [9] = experiment: as above
Vero E6 [10] = experiment: as above
Caco-2 [11] = experiment: drug sensitivity score (DSS) for viability; higher = more toxic; extreme values may be limits of the assay
Calu-3 [12] = experiment: as above
HepG2 [13] = experiment: as above
U2OS [14] = experiment: as above
Vero E6 [15] = experiment: as above

| Structure (SMILES) | cell viability (Caco-2 [1]; 1 nM) [%] | cell viability (Caco-2 [1]; 10 nM) [%] | cell viability (Caco-2 [1]; 100 nM) [%] | cell viability (Caco-2 [1]; 1000 nM) [%] | cell viability (Caco-2 [1]; 10000 nM) [%] | cell viability (Calu-3 [2]; 1 nM) [%] | cell viability (Calu-3 [2]; 10 nM) [%] | cell viability (Calu-3 [2]; 100 nM) [%] | cell viability (Calu-3 [2]; 1000 nM) [%] | cell viability (Calu-3 [2]; 10000 nM) [%] | cell viability (HepG2 [3]; 1 nM) [%] | cell viability (HepG2 [3]; 10 nM) [%] | cell viability (HepG2 [3]; 100 nM) [%] | cell viability (HepG2 [3]; 1000 nM) [%] | cell viability (HepG2 [3]; 10000 nM) [%] | cell viability (U2OS [4]; 1 nM) [%] | cell viability (U2OS [4]; 10 nM) [%] | cell viability (U2OS [4]; 100 nM) [%] | cell viability (U2OS [4]; 1000 nM) [%] | cell viability (U2OS [4]; 10000 nM) [%] | cell viability (Vero E6 [5]; 1 nM) [%] | cell viability (Vero E6 [5]; 10 nM) [%] | cell viability (Vero E6 [5]; 100 nM) [%] | cell viability (Vero E6 [5]; 1000 nM) [%] | cell viability (Vero E6 [5]; 10000 nM) [%] | relative viability EC50 (Caco-2 [6]) [µM] | relative viability EC50 (Calu-3 [7]) [µM] | relative viability EC50 (HepG2 [8]) [µM] | relative viability EC50 (U2OS [9]) [µM] | relative viability EC50 (Vero E6 [10]) [µM] | drug sensitivity score (Caco-2 [11]) | drug sensitivity score (Calu-3 [12]) | drug sensitivity score (HepG2 [13]) | drug sensitivity score (U2OS [14]) | drug sensitivity score (Vero E6 [15]) |
| --- | --- | --- | --- | --- | --- | --- | --- | --- | --- | --- | --- | --- | --- | --- | --- | --- | --- | --- | --- | --- | --- | --- | --- | --- | --- | --- | --- | --- | --- | --- | --- | --- | --- | --- | --- |
| Cc1cccc(Nc2cc(Cl)nc(SCC(=O)O)n2)c1C [pirinixic-acid] | 90 | 95.2 | 98.8 | 98.1 | 87.2 | 99.9 | 102 | 93.7 | 114 | 97.4 | 98.8 | 99.4 | 94.8 | 99.2 | 101 | 103 | 104 | 95.7 | 102 | 97.1 | 100 | 95.3 | 98.8 | 95.9 | 100 | > 10 | > 10 | > 10 | > 10 | > 10 | 0 | 0 | 0 | 0 | 0 |
| CCN(c1ccccc1)c1cc(=NC)n(C)c(C)n1 [ZD-7288] | 103 | 102 | 113 | 101 | 97.3 | 106 | 101 | 91.8 | 103 | 96.9 | 98.1 | 109 | 99.4 | 102 | 93.5 | 97.4 | 97.6 | 103 | 98.7 | 96 | 108 | 103 | 99.3 | 102 | 99 | > 10 | > 10 | > 10 | > 10 | > 10 | 0 | 0 | 0 | 0 | 0 |
| COc1cccc(N2CCN(C3=Nc4c(F)cccc4[C@H](CC(=O)O)N3c3cc(C(F)(F)F)ccc3OC)CC2)c1 [letermovir] | 97.4 | 103 | 103 | 97.9 | 83.1 | 99.6 | 96 | 93.9 | 101 | 113 | 102 | 86.2 | 94.3 | 99.1 | 90.6 | 105 | 106 | 95.8 | 105 | 94.9 |  |  |  |  |  | > 10 | > 10 | > 10 | > 10 |  | 0.6 | 0 | 0 | 0 |  |
| CCCCN(CCCC)CC(O)c1cc(Cl)cc2c1-c1ccc(Cl)cc1/C2=C/c1ccc(Cl)cc1 (stereo not drawn) [lumefantrine] | 99.8 | 92.6 | 101 | 94.5 | 89.5 | 82.9 | 102 | 90 | 102 | 94.4 | 98.9 | 113 | 107 | 108 | 84.2 | 101 | 101 | 103 | 103 | 95.2 | 102 | 102 | 102 | 105 | 91.2 | > 10 | > 10 | > 10 | > 10 | > 10 | 0 | 0 | 0.1 | 0 | 0 |
| CC(=O)[C@H]1CC[C@H]2[C@@H]3CCC4=CC(=O)CC[C@]4(C)[C@H]3CC[C@]12C [progesterone] | 97.4 | 98.8 | 98.4 | 87.2 | 82.9 | 95 | 98.4 | 87.2 | 94.5 | 92 | 102 | 99.9 | 102 | 96.4 | 95.6 | 100 | 98 | 101 | 100 | 96.8 | 92 | 108 | 91.3 | 96.8 | 110 | > 10 | > 10 | > 10 | > 10 | > 10 | 1.3 | 0 | 0 | 0 | 0 |
